Assay results taken from publication PMC4156305, “Structure Driven Design of Novel Human Ether-A-Go-Go-Related-Gene Channel (hERG1) Activators” (PLoS ONE, 2014).
Entries after “also recorded” stand apart in the source; their conditions may differ.

Key:
hERG1 E544L [1] = target: T1, hERG1 E544L (Homo sapiens, UniProt Q12809, E544L); conditions: ref [7]–[12]; cited from earlier work
T1 construct: expressed in transfected cells; host or cells: HEK 293

hERG1 E544L [2] = target: T1, hERG1 E544L; assay: Whole cell patch-clamp of hERG1 E544L mutant; format: cell-based; conditions: 10 µM
Procedure: (§1) Transfected HEK cells on glass cover slips were placed in a chamber mounted on a modified stage of an inverted microscope. The chamber was superfused at a rate of 2 mL/min with a normal external solution. The extracellular solution contained (in mM) NaCl 140, KCl 5.4, CaCl2 1, MgCl2 1, HEPES 5, glucose 5.5, pH 7.4, with NaOH. Micropipettes were pulled from borosilicate glass capillary tubes on a programmable horizontal puller (Sutter Instruments, Novato, CA). Standard patch-clamp methods were used to measure the whole cell currents of hERG1 mutants expressed in HEK 293 cells using the AXOPATCH 200B amplifier (Axon Instruments). Unless otherwise indicated, tail currents were recorded when the voltage was returned to −50 mV from +50 mV. Further details on electrophysiological methods are collected in Methods S1.
(§2) Electrophysiology Protocol:
(§3) The pipette solution contained the following (at mM concentration): KCl 10, K-aspartate 110, MgCl2 5, Na2ATP 5, EGTA 10, HEPES 5, and CaCl2 1. The solution was adjusted to pH 7.2 with KOH. The extracellular solution contained the following (at mM concentration): NaCl 140, KCl 5.4, CaCl2 1, MgCl2 1, HEPES 5, and glucose 5.5. The solution was adjusted to pH 7.4 with NaOH. For IKr measurements, the whole cell configuration of the patch clamp method was used. The series resistance was less than 7
(§4) MΩ. The data were sampled at 1 kHz. The holding potential was -80 mV. The activation of hERG tail currents was induced by depolarization to a range of potentials from +50 to -100 mV in 10 mV steps for 1 second. This was followed by repolarization to -100 mV for 1 second to record the tail currents.
(§5) -100 mV, a -120 mV 1 second pre-pulse was applied to completely close the hERG channels before subsequent depolarization. All of the tail currents reported in this manuscript represent dofetilide-sensitive currents. The inactivation of hERG was measured by a previously reported triple-pulse protocol5, 6. The holding potential was -80 mV. The hERG channel was first depolarized to +50 mV for 1 second. Recovery from inactivation was achieved using a short pulse (a 10 ms hyperpolarization) to -120 mV, followed by the application of test pulses from -100 to 0 mV for 1 second in 10 mV steps.
(§6) A voltage of -100 mV was selected because it was on the flat part of the inactivation-voltage relationship. The methods employed are identical to ones previously reported. […]

hERG1 [3] = target: T2, hERG1 (Homo sapiens, UniProt Q12809); conditions: cited from earlier work
T2 construct: expressed in transfected cells; host or cells: HEK 293

hERG1 [4] = target: T2, hERG1; assay: Whole cell patch-clamp of hERG1 currents in transfected HEK 293 cells; format: cell-based; design: Inactivation ΔV0.3: unit not given here; conditions: for Deactivation Δλ/λcon: deactivation time constant relative to baseline; for Activation V1/2 (mV): shift in voltage-dependence of activation; for Inactivation ΔV0.3: shift in voltage-dependence of inactivation; for Amplitude I/Icon: tail current relative to baseline
Procedure: as §1, §2, §3, §4, §5, §6

[5] = target: T3, cardiac sodium current (INa) (Mus musculus, UniProt Q9JJV9); assay: Patch clamp of INa in neonatal cardiomyocytes; format: cell-based
T3 construct: endogenous in cells; host or cells: neonatal (day 1) mouse ventricular cardiomyocytes
Procedure: (§7) Action potentials were recorded from neonatal (day 1) mouse ventricular myocytes as previously reported. Although IKr has little physiologic importance to the action potential of the adult rodent heart, we previously reported that IKr is the dominant repolarizing current in day 1 neonatal myocytes, with little or no IKs. Thus, these neonatal cells are well suited to assess the physiologic relevance of blockade of IKr to the action potential characteristics. In contrast, to address the possibility that compounds inadvertently interact with other channels, action potentials were recorded from adult cardiac myocytes. Myocytes on glass coverslips were placed in a chamber mounted on a modified stage of an inverted microscope.
Figure 10 Drug effect on action potential in cardiomyocytes. Panel A. The effect of 20 µM and 3 µM Panel B. MC-II-157c on action potentials neonatal cardiomyocytes. […] In patch clamp studies, the INa was induced by depolarizations to −30 mV from holding potentials of −100 mV. The light traces are baseline and bold traces were recorded with MC-II-157c.

[6] = tested on: fetal mouse ventricular myocytes; assay: Action potential recordings in neonatal (day 1) / fetal mouse ventricular myocytes; format: cell-based; conditions: listed as MC-II-157c
Procedure: as §7

[7] = Conc. 3 µM, listed as MC-II-157c
[8] = Conc. 10 µM, listed as MC-II-157c

T3 sequence (Q9JJV9 whole entry): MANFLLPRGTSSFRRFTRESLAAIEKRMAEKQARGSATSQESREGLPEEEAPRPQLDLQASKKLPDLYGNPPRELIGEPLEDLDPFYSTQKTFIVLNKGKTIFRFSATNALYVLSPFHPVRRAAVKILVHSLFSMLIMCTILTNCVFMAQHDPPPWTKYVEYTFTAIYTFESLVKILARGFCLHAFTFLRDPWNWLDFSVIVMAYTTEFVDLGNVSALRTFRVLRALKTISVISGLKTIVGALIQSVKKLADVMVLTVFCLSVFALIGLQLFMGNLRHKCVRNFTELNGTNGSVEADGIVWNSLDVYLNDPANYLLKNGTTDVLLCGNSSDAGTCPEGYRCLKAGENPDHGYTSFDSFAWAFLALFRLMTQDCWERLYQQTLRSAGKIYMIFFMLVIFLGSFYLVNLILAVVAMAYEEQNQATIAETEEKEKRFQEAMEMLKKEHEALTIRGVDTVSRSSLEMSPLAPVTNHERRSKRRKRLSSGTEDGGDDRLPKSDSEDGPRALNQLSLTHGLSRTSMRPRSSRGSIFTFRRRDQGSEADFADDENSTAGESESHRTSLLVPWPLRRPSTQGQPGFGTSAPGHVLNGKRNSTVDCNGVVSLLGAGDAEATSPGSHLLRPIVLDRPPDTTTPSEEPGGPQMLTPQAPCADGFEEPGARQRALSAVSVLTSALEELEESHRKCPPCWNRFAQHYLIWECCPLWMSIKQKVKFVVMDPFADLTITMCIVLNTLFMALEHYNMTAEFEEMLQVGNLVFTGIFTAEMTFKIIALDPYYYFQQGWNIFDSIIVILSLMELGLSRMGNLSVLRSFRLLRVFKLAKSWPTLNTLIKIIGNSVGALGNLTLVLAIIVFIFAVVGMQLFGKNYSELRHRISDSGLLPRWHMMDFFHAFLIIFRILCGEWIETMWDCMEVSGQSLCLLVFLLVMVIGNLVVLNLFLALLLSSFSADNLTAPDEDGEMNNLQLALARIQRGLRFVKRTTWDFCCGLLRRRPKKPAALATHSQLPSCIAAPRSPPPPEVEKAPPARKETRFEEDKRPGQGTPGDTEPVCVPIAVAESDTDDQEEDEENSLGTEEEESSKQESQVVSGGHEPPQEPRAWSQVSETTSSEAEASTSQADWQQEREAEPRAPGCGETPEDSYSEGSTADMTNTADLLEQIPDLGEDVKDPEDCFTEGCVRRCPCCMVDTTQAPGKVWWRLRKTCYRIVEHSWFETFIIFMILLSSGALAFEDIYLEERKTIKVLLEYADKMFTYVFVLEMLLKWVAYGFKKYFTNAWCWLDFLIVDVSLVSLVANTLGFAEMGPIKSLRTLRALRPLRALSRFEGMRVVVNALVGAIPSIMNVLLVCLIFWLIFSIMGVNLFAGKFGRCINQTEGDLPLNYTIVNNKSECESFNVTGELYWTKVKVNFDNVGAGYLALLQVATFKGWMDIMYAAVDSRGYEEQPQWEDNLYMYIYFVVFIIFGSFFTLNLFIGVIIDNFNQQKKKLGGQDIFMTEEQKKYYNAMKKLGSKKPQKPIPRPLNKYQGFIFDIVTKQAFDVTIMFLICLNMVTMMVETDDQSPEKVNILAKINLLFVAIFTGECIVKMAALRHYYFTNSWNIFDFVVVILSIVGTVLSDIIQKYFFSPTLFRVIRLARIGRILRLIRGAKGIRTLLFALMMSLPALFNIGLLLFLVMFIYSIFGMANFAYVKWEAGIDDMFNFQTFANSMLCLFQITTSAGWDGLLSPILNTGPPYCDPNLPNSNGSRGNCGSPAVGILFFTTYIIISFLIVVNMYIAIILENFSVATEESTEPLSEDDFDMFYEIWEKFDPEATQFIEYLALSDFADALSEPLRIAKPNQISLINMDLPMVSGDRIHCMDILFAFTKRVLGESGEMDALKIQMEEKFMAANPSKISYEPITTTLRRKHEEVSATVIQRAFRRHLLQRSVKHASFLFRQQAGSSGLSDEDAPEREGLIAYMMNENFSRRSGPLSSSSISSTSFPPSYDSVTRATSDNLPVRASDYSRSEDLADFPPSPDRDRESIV

In the case of O=C(Nc1cc(C(F)(F)F)ccc1O)Nc1cc(C(F)(F)F)ccc1O [NS1643], the “NS1643-induced increase in tail current amplitude” value (hERG1 E544L [1]) is given as 398%, the “NS1643-induced shift in the V1/2 of activation” value (hERG1 E544L [1]) is given as −24±3 mV and the “NS1643-induced slowing of deactivation” value (hERG1 E544L [1]) is given as 3.5 fold. The “pharmacologic responses (shift in voltage-dependence of activation, slowing of deactivation) in E544L versus WT” value (hERG1 E544L [2]) was “exaggerated pharmacologic responses; also recorded: exaggerated response”, the “response in amplitude of the tail current in E544L versus WT” value (hERG1 E544L [2]) was “exaggerated” and the “NS1643-induced increase in tail current amplitude” value (hERG1 [3]; WT, ref [7]–[12]) was 13%. For the same compound, the “NS1643-induced slowing of deactivation” value (hERG1 [3]; WT, ref [7]–[12]) was 1.9 fold, the “concentration increasing current density / tail current magnitude” value (hERG1 [3]; ref [7]) was 10 µM and the “concentration producing channel blockade” value (hERG1 [3]; ref [7]) was 30 µM. The “concentration that increases the magnitude of the tail current” value (hERG1 [3]; ref [13]) was 10 µM, the “concentrations that pharmacologically block the channel” value (hERG1 [3]; ref [13]) was 20–30 µM and the “NS1643-induced shift in the V1/2 of activation” value (hERG1 [3]; wild type (WT), ref [7]–[12]) was −18±3 mV. For the same compound, the “Deactivation Δλ/λcon” value (hERG1 [4]; Conc. 10 µM) was 1±0.4, the “Activation V1/2 (mV)” value (hERG1 [4]; Conc. 10 µM) was −21±2.3 mV and the “Inactivation ΔV0.3” value (hERG1 [4]; Conc. 10 µM) was “+6±0.6”. The “Amplitude I/Icon” value (hERG1 [4]; Conc. 10 µM) was 1±0.04 and the safety factor (hERG1 [4]; original safety factor, blockade versus activation) was 3 fold.
For C[C@H](NCc1ccc(C(F)(F)F)cc1)C(=O)NC(=O)Nc1cc(C(F)(F)F)ccc1O [Compound 5], the “concentrations at which INa is blocked” value [5] was greater than 20 µM, the “blockade of the sodium current (INa)” value ([5]; 20 µM, listed as MC-II-157c) was “blocks a cardiac sodium channel; also recorded: substantially blocks INa” and the action potential duration ([6]; 3 µM) was “significantly shortened action potential duration”. For the same compound, the “upstroke of the action potential, overshoot potential and excitability threshold” value ([6]; 20 µM) was “affected the upstroke of the action potential, the overshoot potential and the excitability threshold; also recorded: decreased the upstroke dV/dt of the action potential, the overshoot potential and excitability threshold”, the “response in amplitude of the tail current in E544L versus WT” value (hERG1 E544L [2]) was “markedly diminished” and the “pharmacologic responses (shift in voltage-dependence of activation, slowing of deactivation) in E544L versus WT” value (hERG1 E544L [2]; listed as MC-II-157c) was “significantly and substantially less pharmacologic responses; also recorded: significantly and substantially reduced”. For the same compound, the “lower drug concentration at which effects on deactivation were still manifest” value (hERG1 [4]) was roughly 2 µM, the “Deactivation Δλ/λcon” value (hERG1 [4]; Conc. 1 µM) was 0.2±0.1 and the “Activation V1/2 (mV)” value (hERG1 [4]; Conc. 1 µM) was −2±0.0 mV. The “Inactivation ΔV0.3” value (hERG1 [4]; Conc. 1 µM) was 1.3±0.9, the “Amplitude I/Icon” value (hERG1 [4]; Conc. 1 µM) was 0.95±0.02 and the “Deactivation Δλ/λcon” value (hERG1 [4]; Conc. 3 µM) was 0.8±0.1. For the same compound, the “Deactivation Δλ/λcon” value (hERG1 [4]; [7]) was “slows deactivation; also recorded: modest slowing of deactivation”, the “Activation V1/2 (mV)” value (hERG1 [4]; Conc. 3 µM) was −6.5±0.5 mV and the “Activation V1/2 (mV)” value (hERG1 [4]; [7]) was “does shift voltage dependence of activation; also recorded: shifting V1/2 of activation to hyperpolarized potentials”. The “Inactivation ΔV0.3” value (hERG1 [4]; Conc. 3 µM) was 1±1, the “Amplitude I/Icon” value (hERG1 [4]; Conc. 3 µM) was 1.1±0.04 and the “Amplitude I/Icon” value (hERG1 [4]; [7]) was “significantly increased the tail-current amplitude; also recorded: increases tail current amplitude; also recorded: modest increase in tail current amplitude”. For the same compound, the “Deactivation Δλ/λcon” value (hERG1 [4]; Conc. 10 µM) was 3.3±1.3, the “Activation V1/2 (mV)” value (hERG1 [4]; Conc. 10 µM) was −14±3.6 mV and the “Inactivation ΔV0.3” value (hERG1 [4]; Conc. 10 µM) was 14.0±2.7. For the same compound, the “Inactivation ΔV0.3” value (hERG1 [4]; [8]) was “shifts voltage-dependence of inactivation to depolarized potentials”, the “Amplitude I/Icon” value (hERG1 [4]; Conc. 10 µM) was 0.88±0.1 and the “Amplitude I/Icon” value (hERG1 [4]; [8]) was 0.88. For the same compound, the “Deactivation Δλ/λcon” value (hERG1 [4]; Conc. 20 µM) was 3.5±0.2, the “Activation V1/2 (mV)” value (hERG1 [4]; Conc. 20 µM) was −15.3±4.1 mV and the “Inactivation ΔV0.3” value (hERG1 [4]; Conc. 20 µM) was “+9.3±2.0”. The “Amplitude I/Icon” value (hERG1 [4]; Conc. 20 µM) was 0.86±0.1, the “Deactivation Δλ/λcon” value (hERG1 [4]; Conc. 50 µM) was 4.5±0.1 and the “Activation V1/2 (mV)” value (hERG1 [4]; Conc. 50 µM) was −27.5±3.5 mV. The “Inactivation ΔV0.3” value (hERG1 [4]; Conc. 50 µM) was 26±1, the “Amplitude I/Icon” value (hERG1 [4]; Conc. 50 µM) was 0.83±0.1 and the “magnitude of the effects on activation and deactivation, greater than previously reported with NS1643” value (hERG1 [4]; relative to NS1643) was 6-10 fold.
